Measured values published in ChEMBL document CHEMBL5104234, “Targeted protein degradation using the lysosomal pathway” (RSC Med Chem, 2022).

Tests used:
[1] = Drug uptake in human HepG2 cells with ASGPR overexpression assessed as fold increase in intracellular uptake; format: ADME, cell-based
[2] = Cytoprotective activity against Down syndrome patient-derived human Detroit 532 cells assessed as increase in mitochondrial membrane potential at 10 uM incubated for 3 days by JC-1 staining based fluorescence microscopy; format: functional; conditions: time 3 day
Mus musculus = assay: Antidiabetic activity in high fat diet-induced obese db/db mouse assessed as reduction in total lipid concentration at 30 mg/kg,ip administered for 2 weeks; format: functional; design: scale not given: the % may be the effect or the level left

fold change (FC) [1] | SMILES | Activity (Mus musculus) | other results
16 | CC(=O)N[C@@H]1[C@@H](O)[C@@H](O)[C@@H](CO)O[C@@H]1O | – | –
– | CC(=O)N[C@@H](CSc1nc2c(=O)[nH]c(N)nc2n1Cc1ccc(F)cc1)C(=O)NCCCOCCOCCOCCCCC(=O)C(=O)c1c(-c2ccccc2)[nH]c2ccccc12 | – | Activity [2]: 50%
2 | N[C@@H](COC1O[C@H](CCP(=O)(O)O)[C@@H](O)[C@H](O)[C@@H]1O)C(=O)O (stereo not given in full) | – | –
– | O=C1C(=Cc2cc(Br)c(O)c(Br)c2)c2cc(I)ccc2N1CCCCCCCCCCCOc1ccc2ccccc2c1/N=N/c1ccc(/N=N/c2ccccc2)cc1 | 62% | –
– | O=c1cc(-c2ccccc2)c2c(OCCCCCCCCCCOc3ccc4ccccc4c3/N=N/c3ccc(/N=N/c4ccccc4)cc3)cc(O)cc2o1 | 62% | –
